In series [1] the test system is MCF7 and SW480 cancer cells. The experiment in a line: MTT cell viability assay, both cancer cell lines. It counts as cell-based, human. The conditions noted are these: for toxicity towards both MCF7 and SW480 cancer cells (in words): 24, 48 and 72 h of incubation; for IC50: Homo sapiens, MCF7 and SW480, span over 24, 48 and 72 h, read-out: IC50 range towards both cancer cell lines. On the procedure: (§1) MCF7, SW480 and normal L6 muscle cells were bought from the ATCC company, USA [34]. MCF7 and SW480 adenocarcinoma cell lines were cultured, respectively, using Dulbecco’s Modified Eagle Medium (DMEM with 4.5 g/L glucose; HIMEDIA, Mumbai, India) supplemented with 100 U/mL penicillin, 100 µg/mL of streptomycin and 10% fetal bovine serum (FBS; Cat No. FBSEU500; Tico Europe, Amstelveen, The Netherlands) under standard conditions until the desired confluency was reached. Once the desired cell confluency of 70–80% was observed, the cells were sub-cultured through trypsinization, and the cell count was calculated prior to seeding in the 96-well microplate. Similarly, L6 rat myoblasts were cultured accordingly as normal cell lines to compare against MCF7 and SW480 cell lines during the MTT cell viability assay.
(§2) Cells were seeded in a 96-well microplate at a density of 1 × 10^4 cells per well and were allowed to adhere to the wells overnight. Subsequently, the cells were treated with varying concentrations of 12 compounds (1a,b,c–4a,b,c) along with doxorubicin as the positive control. The cells were exposed to the tested substances at concentrations ranging from 50, 25, 10, 5 and 1 μM. The treatment was conducted over three periods of 24 h, 48 h and 72 h, respectively. After the treatment period, thiazolyl blue tetrazolium bromide (MTT) solution was added to each well at a concentration of 0.5 mg/mL and incubated for 3 h in a 37 °C incubator supplemented with 5% CO2. Lastly, the spent MTT medium was removed and DMSO was added to the wells, where the purple formazan crystals were solubilized, and the intensity of the purple hue was spectrophotometrically measured at 570 nm.
(§3) All values were represented as means ± standard deviations (n = 3). The data were statistically analyzed using GraphPad Prism 10.1.0, where the IC50 values of each compound treated on different cell lines at different time points were obtained by extrapolating the logarithmic dose–response curve. The IC50 values were further subjected to one-way ANOVA analysis along with the post hoc test to determine the statistical significance between the treatment groups and the negative control (untreated cells).
In general terms: Tetrazolium dyes change colour on reduction, which living cells bring about.

For the next series, the system named is MCF7 breast cancer. Kind of series: MTT cell viability assay, MCF7. The conditions noted are these: for Selectivity Index (SI), MCF-7: SI = IC50 L6 / IC50 MCF-7; for IC50: Homo sapiens, MCF7, mean ± SD, n = 3, read-out: Anticancer Activity IC50, MCF-7. It counts as cell-based, human. As for the experimental part:
as §1
(§4) Cells were seeded in a 96-well microplate at a density of 1 × 10^4 cells per well and were allowed to adhere to the wells overnight. […] The cells were exposed to the tested substances at concentrations ranging from 50, 25, 10, 5 and 1 μM. The treatment was conducted over three periods of 24 h, 48 h and 72 h, respectively. […] Lastly, the spent MTT medium was removed and DMSO was added to the wells, where the purple formazan crystals were solubilized, and the intensity of the purple hue was spectrophotometrically measured at 570 nm.
(§5) All values were represented as means ± standard deviations (n = 3). […] The IC50 values were further subjected to one-way ANOVA analysis along with the post hoc test to determine the statistical significance between the treatment groups and the negative control (untreated cells).

The subject of another series is normal L6 rat myoblasts. The experiment in a line: MTT cell viability assay, normal L6 cells. The series is classed as cell-based. The conditions noted are these: Rattus norvegicus, Myoblast, mean ± SD, n = 3, read-out: Anticancer Activity IC50, L6. On the procedure:
as §1, §2, §3

The subject of another series is SW480 colon cancer. The experiment in a line: MTT cell viability assay, SW480. The series is classed as cell-based, human. The conditions noted are these: for Selectivity Index (SI), SW480: SI = IC50 L6 / IC50 SW480; for IC50: Homo sapiens, SW480, mean ± SD, n = 3, read-out: Anticancer Activity IC50, SW480. As for the experimental part: as §1, §4, §5
[2] abbreviates: 72 h treatment period, NA = IC50 beyond the tested concentration range (1-50 µM).

Structures are written as SMILES. Read-outs that look alike come from different tables or passages of the source.

From paper PMC10674446, “Synthesis and Structural Characterization of Novel Dimers of Dipyridothiazine as Promising Antiproliferative Agents” (Molecules, 2023) come the findings set out here.

Usually IC50 stands for the concentration that gives 50% inhibition. The melting point is the temperature of the solid-liquid transition. For the molecule `c1cc(CN2c3cccnc3Sc3cccnc32)nc(CN2c3cccnc3Sc3cccnc32)c1` [1c, 2,6-bis((dipyrido[2,3-b:2′,3′-e][1,4]thiazin-10-yl)methyl)pyridine], the melting point was in the range of 245 to 247 °C. In series [1], the “toxicity towards both MCF7 and SW480 cancer cells (in words)” value is listed as “significantly toxic”; the IC50 lay in the range of 0.67 to 5 µM. Further, the “Selectivity Index (SI), MCF-7” value with MCF7 breast cancer (24 h) was 2.25. Also, the “Selectivity Index (SI), MCF-7” value in the series on MCF7 breast cancer (48 h) came out at 3.56. Further, in the series with MCF7 breast cancer (72 h), the “Selectivity Index (SI), MCF-7” value was determined as 5.5. The IC50 with MCF7 breast cancer (24 h treatment period) is 5 ± 1.29 µM. In the series on MCF7 breast cancer (48 h treatment period), the IC50 is 0.75 ± 1.85 µM. Also, the IC50 in the series with MCF7 breast cancer (setting [2]) was 1.14 ± 0.51 µM. Also, the IC50 in the series with normal L6 rat myoblasts (24 h treatment period) amounted to 11.3 ± 0.99 µM. For the same molecule, in the series on normal L6 rat myoblasts (48 h treatment period), the IC50 stood at 2.67 ± 2.13 µM. The IC50 in the series on normal L6 rat myoblasts (72 h treatment period) stood at 6.82 ± 1.24 µM. Also, the “Selectivity Index (SI), SW480” value with SW480 colon cancer (24 h) is listed as 16.5. The “Selectivity Index (SI), SW480” value in the series on SW480 colon cancer (48 h) is given as 0.67. For the same molecule, in the series with SW480 colon cancer (72 h), the “Selectivity Index (SI), SW480” value came to 1.5. Moreover, the IC50 in the series with SW480 colon cancer (24 h treatment period) was determined as 0.67 µM. In addition, in the series with SW480 colon cancer (48 h treatment period), the IC50 worked out at 3.97 ± 1.27 µM. For the same molecule, the IC50 in the series on SW480 colon cancer (72 h treatment period) stood at 4.27 ± 0.19 µM.

`c1ccc(CN2c3cnccc3Sc3cccnc32)c(CN2c3cnccc3Sc3cccnc32)c1` [2a, 1,2-bis((dipyrido[3,2-b:3′,4′-e][1,4]thiazin-10-yl)methyl)benzene]: the melting point fell in the range of 260 to 261 °C. Further, in series [1], the “toxicity towards both MCF7 and SW480 cancer cells (in words)” value is on record as “significantly toxic”; the IC50 was in the range of 6.27 to 9.68 µM. The “Selectivity Index (SI), MCF-7” value in the series on MCF7 breast cancer (24 h) amounted to 3.5. In addition, the “Selectivity Index (SI), MCF-7” value in the series with MCF7 breast cancer (48 h) was found to be 1.83. For the same molecule, the “Selectivity Index (SI), MCF-7” value in the series on MCF7 breast cancer (72 h) came out at 1.59. The IC50 in the series with MCF7 breast cancer (24 h treatment period) worked out at 6.27 ± 0.95 µM. In the series with MCF7 breast cancer (48 h treatment period), the IC50 was found to be 9.65 ± 0.63 µM. Also, the IC50 in the series with MCF7 breast cancer (setting [2]) amounted to 8.16 ± 0.97 µM. In the series on normal L6 rat myoblasts (24 h treatment period), the IC50 turned out to be 22.1 ± 1.42 µM. Also, in the series with normal L6 rat myoblasts (48 h treatment period), the IC50 was 17.7 ± 0.27 µM. Also, the IC50 in the series on normal L6 rat myoblasts (72 h treatment period) turned out to be 13 ± 1.32 µM. In addition, the “Selectivity Index (SI), SW480” value in the series on SW480 colon cancer (24 h) came out at 2.32. For the same molecule, the “Selectivity Index (SI), SW480” value in the series on SW480 colon cancer (48 h) stood at 2.03. Also, the “Selectivity Index (SI), SW480” value in the series with SW480 colon cancer (72 h) worked out at 1.75. For the same molecule, the half-maximal inhibitory concentration (IC50) in the series on SW480 colon cancer (24 h treatment period) was found to be 9.68 ± 0.17 µM. In the series with SW480 colon cancer (48 h treatment period), the IC50 was found to be 8.74 ± 0.03 µM. Besides, in the series with SW480 colon cancer (72 h treatment period), the IC50 was 7.433 ± 0.02 µM.

Take `c1cc(CN2c3cnccc3Sc3cccnc32)nc(CN2c3cnccc3Sc3cccnc32)c1` [2c, 2,6-bis((dipyrido[3,2-b:3′,4′-e][1,4]thiazin-10-yl)methyl)pyridine]: the melting point fell in the range of 266 to 268 °C. Further, the “cytotoxicity towards MCF7 compared with SW480 (in words)” value in series [1] (breast cancer cell line MCF7 versus colon cancer cell line SW480) is reported as “higher cytotoxicity”. For the same molecule, the “Selectivity Index (SI), MCF-7” value in the series on MCF7 breast cancer (24 h) came out at 0.76. Further, the “Selectivity Index (SI), MCF-7” value in the series on MCF7 breast cancer (48 h) is given as 1.91. Further, the “Selectivity Index (SI), MCF-7” value in the series with MCF7 breast cancer (72 h) stood at 1.80. Further, in the series on MCF7 breast cancer (24 h treatment period), the IC50 turned out to be 23.2 ± 0.33 µM. The IC50 with MCF7 breast cancer (48 h treatment period) was 10.02 ± 0.05 µM. Also, the IC50 in the series with MCF7 breast cancer (setting [2]) came out at 9.96 ± 0.03 µM. Further, the IC50 in the series on normal L6 rat myoblasts (24 h treatment period) was found to be 17.6 ± 0.85 µM. The IC50 in the series with normal L6 rat myoblasts (48 h treatment period) was determined as 19.23 ± 0.13 µM. For the same molecule, the IC50 in the series with normal L6 rat myoblasts (72 h treatment period) came to 18 ± 0.18 µM. The “Selectivity Index (SI), SW480” value in the series on SW480 colon cancer (24 h) was determined as 1.02. The “Selectivity Index (SI), SW480” value in the series with SW480 colon cancer (48 h) turned out to be 0.91. Besides, in the series on SW480 colon cancer (72 h), the “Selectivity Index (SI), SW480” value amounted to 1.12. Besides, the IC50 with SW480 colon cancer (24 h treatment period) was 17.2 ± 1.46 µM. Also, the IC50 in the series with SW480 colon cancer (48 h treatment period) worked out at 21.1 ± 0.99 µM. For the same molecule, the IC50 in the series with SW480 colon cancer (72 h treatment period) stood at 15.9 ± 1.48 µM.

As to `c1ccc(CN2c3ccncc3Sc3ccncc32)c(CN2c3ccncc3Sc3ccncc32)c1` [3a, 1,2-bis((dipyrido[3,4-b:3′,4′-e][1,4]thiazin-10-yl)methyl)benzene], the melting point fell in the range of 280 to 282 °C. Moreover, in series [1], the “toxicity towards both MCF7 and SW480 cancer cells (in words)” value is given as “significantly toxic”; the IC50 is 3.17 to 6.12 µM. Also, in the series on MCF7 breast cancer (24 h), the “Selectivity Index (SI), MCF-7” value is 6.46. Moreover, in the series on MCF7 breast cancer (48 h), the “Selectivity Index (SI), MCF-7” value came out at 6.85. Also, in the series with MCF7 breast cancer (72 h), the “Selectivity Index (SI), MCF-7” value amounted to 3.51. Further, in the series on MCF7 breast cancer (24 h treatment period), the IC50 is 4.77 ± 0.84 µM. In addition, in the series on MCF7 breast cancer (48 h treatment period), the concentration for half-maximal inhibition (IC50) stood at 3.17 ± 0.13 µM. Besides, the IC50 with MCF7 breast cancer (setting [2]) turned out to be 6.1 ± 1.33 µM. For the same molecule, the IC50 in the series on normal L6 rat myoblasts (24 h treatment period) was 30.8 ± 0.47 µM. Also, the IC50 in the series with normal L6 rat myoblasts (48 h treatment period) is 21.7 ± 0.48 µM. Moreover, the IC50 with normal L6 rat myoblasts (72 h treatment period) came out at 21.41 ± 0.17 µM. Further, the “Selectivity Index (SI), SW480” value in the series with SW480 colon cancer (24 h) was 5.02. The “Selectivity Index (SI), SW480” value in the series with SW480 colon cancer (48 h) was 5.22. Besides, the “Selectivity Index (SI), SW480” value with SW480 colon cancer (72 h) amounted to 4.69. Further, the 50% inhibitory concentration (IC50) in the series on SW480 colon cancer (24 h treatment period) is 6.12 ± 0.21 µM. For the same molecule, the IC50 in the series on SW480 colon cancer (48 h treatment period) was 4.16 ± 0.08 µM. The IC50 in the series on SW480 colon cancer (72 h treatment period) worked out at 4.56 ± 1.18 µM.
